Results reported in ChEMBL document CHEMBL5729410, “Urea-substituted aromatic ring-linked dioxinoquinoline compounds, preparation method and uses thereof” (2022).
pIC50: −log10 of the molar value.

How the values were obtained:
[1] = biological target: Proto-oncogene tyrosine-protein kinase receptor Ret (Homo sapiens, UniProt P07949); assay: Assay of Small Molecular Compounds for Inhibiting the Activity of RET Kinase: The assay is based on the LANCE TR-FRET technology of Perkin Elmer Inc., and the assay method is as follows:1.
[2] = biological target: Vascular endothelial growth factor receptor 2 (Homo sapiens, UniProt P35968); assay: Assay of Small Molecular Compounds for Inhibiting the Activity of VEGFR-2 Kinase: The assay is based on the LANCE TR-FRET technology of Perkin Elmer Inc., and the assay method is as follows:1.
Sequence of Vascular endothelial growth factor receptor 2 (P35968 whole entry): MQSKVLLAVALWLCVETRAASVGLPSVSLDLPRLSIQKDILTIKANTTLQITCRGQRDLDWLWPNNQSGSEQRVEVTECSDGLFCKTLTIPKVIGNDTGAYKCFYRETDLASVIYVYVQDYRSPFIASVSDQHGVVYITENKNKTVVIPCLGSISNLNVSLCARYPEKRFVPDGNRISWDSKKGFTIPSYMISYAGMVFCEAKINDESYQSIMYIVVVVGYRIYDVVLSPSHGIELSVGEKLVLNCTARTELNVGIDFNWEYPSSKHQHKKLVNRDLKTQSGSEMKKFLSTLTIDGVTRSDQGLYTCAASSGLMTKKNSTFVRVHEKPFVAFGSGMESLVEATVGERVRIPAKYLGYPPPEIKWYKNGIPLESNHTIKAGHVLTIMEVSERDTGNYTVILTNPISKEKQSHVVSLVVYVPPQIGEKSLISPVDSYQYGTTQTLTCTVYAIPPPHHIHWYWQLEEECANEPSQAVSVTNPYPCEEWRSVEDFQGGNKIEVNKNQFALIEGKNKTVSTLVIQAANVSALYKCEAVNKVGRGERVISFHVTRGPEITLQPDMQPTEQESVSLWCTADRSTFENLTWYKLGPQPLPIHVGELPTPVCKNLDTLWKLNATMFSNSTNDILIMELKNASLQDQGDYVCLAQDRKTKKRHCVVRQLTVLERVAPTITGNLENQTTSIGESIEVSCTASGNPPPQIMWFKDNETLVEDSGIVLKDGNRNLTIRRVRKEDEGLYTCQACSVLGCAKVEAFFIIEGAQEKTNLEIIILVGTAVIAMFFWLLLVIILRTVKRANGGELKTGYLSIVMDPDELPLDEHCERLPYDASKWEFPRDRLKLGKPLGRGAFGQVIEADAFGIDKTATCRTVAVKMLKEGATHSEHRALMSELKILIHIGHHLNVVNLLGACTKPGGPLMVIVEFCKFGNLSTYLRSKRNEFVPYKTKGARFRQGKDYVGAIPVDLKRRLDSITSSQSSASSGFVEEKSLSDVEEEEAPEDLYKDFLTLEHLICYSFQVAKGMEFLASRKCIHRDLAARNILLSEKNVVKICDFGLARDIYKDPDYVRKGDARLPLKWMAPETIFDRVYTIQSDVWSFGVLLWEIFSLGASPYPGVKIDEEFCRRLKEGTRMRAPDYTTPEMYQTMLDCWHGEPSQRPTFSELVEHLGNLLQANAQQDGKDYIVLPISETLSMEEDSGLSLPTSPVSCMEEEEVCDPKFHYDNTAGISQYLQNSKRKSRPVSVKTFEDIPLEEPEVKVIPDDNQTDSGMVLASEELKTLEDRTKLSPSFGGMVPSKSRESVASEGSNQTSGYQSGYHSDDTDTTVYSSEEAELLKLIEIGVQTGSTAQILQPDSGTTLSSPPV

Sequence of Proto-oncogene tyrosine-protein kinase receptor Ret (P07949 whole entry): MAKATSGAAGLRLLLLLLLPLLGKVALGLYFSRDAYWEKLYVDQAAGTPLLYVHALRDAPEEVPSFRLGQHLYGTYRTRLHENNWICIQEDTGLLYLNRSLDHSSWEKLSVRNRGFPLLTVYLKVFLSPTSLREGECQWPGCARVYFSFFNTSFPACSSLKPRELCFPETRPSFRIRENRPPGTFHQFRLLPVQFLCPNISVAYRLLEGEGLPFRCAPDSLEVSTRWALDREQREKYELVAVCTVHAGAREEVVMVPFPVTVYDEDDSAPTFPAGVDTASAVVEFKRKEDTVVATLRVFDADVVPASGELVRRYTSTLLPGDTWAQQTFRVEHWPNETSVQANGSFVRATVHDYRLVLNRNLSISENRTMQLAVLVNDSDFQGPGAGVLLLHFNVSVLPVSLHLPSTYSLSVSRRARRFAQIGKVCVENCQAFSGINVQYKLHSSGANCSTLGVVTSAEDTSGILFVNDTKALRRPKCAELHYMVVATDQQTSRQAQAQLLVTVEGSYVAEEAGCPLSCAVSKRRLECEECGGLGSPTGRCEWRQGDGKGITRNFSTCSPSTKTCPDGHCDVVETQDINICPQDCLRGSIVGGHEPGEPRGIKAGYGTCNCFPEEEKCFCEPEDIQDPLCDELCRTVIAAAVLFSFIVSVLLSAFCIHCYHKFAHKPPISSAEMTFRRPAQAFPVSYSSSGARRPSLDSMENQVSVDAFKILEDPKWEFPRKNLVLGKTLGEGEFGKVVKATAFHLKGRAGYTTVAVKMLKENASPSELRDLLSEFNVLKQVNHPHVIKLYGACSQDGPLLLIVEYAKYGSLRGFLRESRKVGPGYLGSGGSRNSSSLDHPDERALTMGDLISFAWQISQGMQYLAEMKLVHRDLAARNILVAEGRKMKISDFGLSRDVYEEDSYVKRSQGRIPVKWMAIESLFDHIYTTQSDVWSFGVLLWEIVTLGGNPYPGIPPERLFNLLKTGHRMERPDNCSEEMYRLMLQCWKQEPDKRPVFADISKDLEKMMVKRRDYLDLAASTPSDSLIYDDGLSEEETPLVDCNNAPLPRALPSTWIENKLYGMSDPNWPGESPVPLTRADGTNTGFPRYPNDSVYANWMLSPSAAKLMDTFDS

pIC50 [1] | pIC50 [2] | SMILES
> 7.30 | > 7.30 | CN(CCCOc1cc2nccc(Oc3ccc(NC(=O)Nc4ccc(Cl)c(C(F)(F)F)c4)cc3)c2c2c1OCCO2)C1CCC1
> 7.30 | > 7.30 | O=C(Nc1ccc(Oc2ccnc3cc(OCCCN4CCOCC4)c4c(c23)OCCO4)cc1F)NC1CC1
> 7.30 |  | O=C(Nc1ccc(Oc2ccnc3cc(OC4CCOCC4)c4c(c23)OCCO4)cc1Cl)NC1CC1
